Literature values, collected in US11491171B2, “Synthetic composition and method for modulating emotion and mood disorders” (GLYCOM A/S, priority 2015, dated 2022).

System: mice

Row | Compound | behavioural responses during stressor exposure
1 | 6′-O-sialyllactose [6′-SL] | support normal behavioural responses
2 | CC(=O)N[C@H]1[C@H]([C@H](O)[C@H](O)CO)O[C@@](O[C@H]2[C@@H](O)[C@@H](CO)O[C@@H](O[C@H]3[C@H](O)[C@@H](O)C(O)O[C@@H]3CO)[C@@H]2O)(C(=O)O)C[C@@H]1O (some centres unmarked) [3′-SL, 3′-O-sialyllactose] | support normal behavioural responses
